For one assay, the system named is citrated rat plasma. The assay can be described thus: Ex vivo anticoagulant effect, activated partial thromboplastin time (APTT), rat plasma. The conditions noted are these: control clotting time 19.75 sec set to 1.0. As for the experimental part:
(§1) The ex vivo anticoagulant effects of BzlSO2 -Met(SO2)-Pro-Arg-al was determined by measuring the prolongation of the activated partial thromboplastin time (APTT) over a broad concentration range of the added inhibitor, using pooled normal human and rat plasma. Fresh frozen citrated pooled normal human plasma was obtained from George King Biomedical, Overland Park, Kans. Pooled normal rat plasma was prepared from citrated whole blood collected from anesthetized rats using standard procedures. The plasma was flash frozen and stored at -80° C. until use. Measurements APTT was made using the Coag-A-Mate RA4 automated coagulometer (General Diagnostics, Organon Technica, Oklahoma City, Okla.) using the Automated APTT reagent (Organon Technica, Durham, N.C.) as the initiator of clotting according to the manufacturers instructions.
(§2) The assay was conducted by making a series of dilutions of the test compounds in rapidly thawed plasma followed by adding 200 microliters to the wells of the assay carousel.

The test system of assay [1] is thrombotic occlusion of the rat carotid artery. In words: Rat model of FeCl3-induced platelet-dependent arterial thrombosis. The class given is in vivo, rat (male Harlan Sprague Dawley). The following applies: i.v. bolus. The text has this:
Kurz, K. D., Main, B. W., and Sandusky, G. E., Thromb. […] In this model a platelet-rich, occlusive thrombus is formed in a segment of the rat carotid artery treated locally with a fresh solution of FeCl3 absorbed to a piece of filter paper. The FeCl3 is thought to diffuse into the treated segment of artery and causes de-endothelialization of the affected vessel surface. […] The effect of a test compound on the incidence of occlusive thrombus formation following the application of the FeCl3 is monitored by ultrasonic flowtometry and is used as the primary end point. The use of flowtometry to measure carotid artery blood flow, is a modification of the original procedure in which thermal detection of clot formation was employed. Kurz, K. D., Main, B. W., and Sandusky, G. E., Thromb. […] Male Harlan Sprague Dawley rats (420-450 g) were acclimated at least 72 hours prior to use and fasted for 12 hours prior to surgery with free access to water. […] Blood pressure, blood flow, heart rate, and respiration were monitored for 60 minutes. The incidence of occlusion (defined as the attainment of zero blood flow) was recorded as the primary end point. […] This allows a direct comparison of the antithrombotic efficacy of BzlSO2 -[…] with other antithrombotic agents which have also been evaluated in this model as described above.

For a further assay, the system named is citrated human plasma. The assay can be described thus: Ex vivo anticoagulant effect, activated partial thromboplastin time (APTT), human plasma. The following applies: citrated pooled normal human plasma; control clotting time 28.3 sec set to 1.0. As for the experimental part: as §1, §2

`CS(=O)(=O)CC[C@H](NS(=O)(=O)Cc1ccccc1)C(=O)N1CCC[C@H]1C(=O)N[C@H](C=O)CCCNC(=N)N` [Example 27, N-benzylsulfonyl-L-methionine sulfone-L-proline-L-argininal]: the “prolongation of the APTT” value with citrated rat plasma is “prolonged the APTT in a dose dependent manner in both rat and human plasma”; with citrated human plasma, “prolonged the APTT in a dose dependent manner in both rat and human plasma”. The “efficacy in preventing thrombus formation (result in words)” value in assay [1] was “reduction in the incidence of thrombotic occlusion”.

The record behind these values is patent US5776927A, “Methionine sulfone and S-substituted cysteine sulfone derivatives as enzyme inhibitors” (Corvas International, Inc., priority 1994, dated 1998).
